Experimental data from US12474347B2, “Determination of protein information by recoding amino acid polymers into DNA polymers” (ABRUS BIO, INC., priority 2022, dated 2025).

Experiment: Stability of oligonucleotides in anhydrous TFA simulating Edman peptide cleavage conditions (HPLC)
Format: physicochemical
Conditions: 1 hr in anhydrous TFA (DMSO/TFA, 45 deg C), FIG. 40
Description: A deprotected 15mer DNA oligonucleotide (CCTGTTGTCAATGAG, Sys #003, LO1) (SEQ ID NO: 126) was obtained from Integrated DNA Technologies. Cleavage, deprotection, and desalting were performed by IDT using their standard process. It was resuspended in Mol Bio grade H2O at 160 μM and a 40 μL aliquot was dried (Eppindorf, Vacufuge+, 45° C. for ˜2 hrs) prior to subjecting to Edman cleavage chemistry. The deprotected oligonucleotide material used for the baseline measurement was resuspended as above, but not dried.
A protected DNA oligonucleotide (5Phos/ATGAGTG/iFormInd/AGGGAAATAGCTTCTGGT CGAACTAGTTGTTCGTCAA/idSp/TTTCTTT, Sys #001, SOCAB) (SEQ ID NO: 125) was liberated from CPG support using EndoIV (NEB, M0304) and desalted (Zymo) to provide five 60 μL aliquots at 70 μM of/5Phos/ATGAGTG/iFormInd/[…] (SEQ ID NO: 75), which were dried as described above. The protected oligonucleotide material used for the baseline measurement was desalted as above, but not dried.
In anhydrous environment 40 μL of DMSO was added to each dried aliquot. Following disolution 40 μL TFA was added to each. Solutions were incubated at 45 deg C. for 0 mins, 30 mins, 60 mins, 4 hrs, and overnight. Samples were neutralized by addition of 228 μL of 4.1M imidazole solution at the conclusion of their incubation period. HPLC chromatograms were collected for each sample.

Substance: protected oligos: protected DNA oligonucleotide liberated from CPG support, /5Phos/ATGAGTG/iFormInd/AGGGAAATAGCTTCTGGTCGAACTAGTTGTTCGTCAA (SEQ ID NO: 75) (DNA ATGAGTGNAGGGAAATAGCTTCTGGTCGAACTAGTTGTTCGTCAA; 5' phosphate, internal formylindole, protecting groups; modified_base 1 OTHER; 5' phosphorylated nucleotide; modified_base 8 OTHER; Formylindole modified nucleotide)
- HPLC peak after exposure to anhydrous TFA: largely unchanged
